One test relates to THP-1 cells. As to the kind of experiment: Cell growth inhibition assay (CellTiter-Glo), THP-1. The class given is cell-based. The note with it: Homo sapiens. The method, then:
(§1) Cell Growth Inhibition Assay
(§2) The human leukemia cell lines MV-4-11, THP-1 and K-562 were employed to characterize the effect of BET inhibitors on cellular proliferation and viability. Cells were obtained from the American Type Culture Collection (ATCC) and cultured at 37° C. in a humidified 5% CO2 incubator in the following media: MV-4-11: DMEM high glucose (Animed #1-26F01-I), 10% FCS (Animed #2-01F26-I), 4 mM L-Glutamine (Animed #5-10K50), 1 mM Sodium Pyruvate (Animed # G03625P), 1× Penicillin-Streptomycin (Animed # F12478P); K-562: Iscove's MEM (Animed #1-28F16-I), 10% FCS (Animed #2-01F26-I), 4 mM L-Glutamine (Animed #5-10K50), 1× Penicillin-Streptomycin (Animed # F12478P); THP-1: RPMI-1640 (Animed #1-41F01-I), 10% FCS (Animed #2-01F26-I), 2 mM L-Glutamine (Animed #5-10K50), 10 mM HEPES (Animed #5-31F100), 1 mM Sodium Pyruvate (Animed # G03625P), 1× Penicillin-Streptomycin (Animed # F12478P). The AML lines MV-4-11 and THP-1 are very sensitive to BET inhibitors and show massive cell death upon BET inhibition (Zuber et al., Nature, 478 (2011), 524-8). Compound-mediated suppression of cell proliferation/viability was assessed by quantification of cellular ATP levels using the CellTiter-Glo (CTG) reagent (Promega). Briefly, cells were seeded in 20 μl fresh medium into 384-well plates, followed by addition of 5 μL medium containing compound dilutions at 5-fold their final intended concentration. Dose-response effects were assessed by 3-fold serial dilutions of the test compound, starting at 10 μM. Following incubation of the cells for 4 days at 37° C. and 5% CO2, the effect of inhibitors on cell viability was quantified following addition of 20 μl CTG and luminescence quantification (integration time: 100 ms) as per vendor manual, using a correspondingly equipped Tecan M200 multi-mode platereader (TECAN, Switzerland). For data analysis, the assay background value determined in wells containing medium, but no cells, was subtracted from all data points. To enable differentiation of cytotoxic from cytostatic compounds, the number of viable cells is assessed relative to that observed at the time of compound addition using a separate cell plate (day 0). The effect of a particular test compound concentration on cell proliferation/viability is expressed as percentage of the background- and day 0-corrected luminescence reading obtained for cells treated with vehicle only (DMSO, 0.1% final concentration), which is set as 100%, whereas that luminescence reading for wells containing medium is set as −100%. Compound concentrations leading to half-maximal (1050) and total growth inhibition (TGI) were determined using standard four parameter curve fitting.
In general terms: Cellular ATP, detected with luciferase, serves as a proxy for viable cell number.

For another test, the system named is MV-4-11 cells. As to the kind of experiment: Cell growth inhibition assay (CellTiter-Glo), MV-4-11. The class given is cell-based. As to conditions: Homo sapiens, MV4-11. The method, then:
as §1, §2

The test system of the next test is K-562 cells. Description: Cell growth inhibition assay (CellTiter-Glo), K-562. The class given is cell-based, human. The note with it: Homo sapiens, K562. The method, then: as §1, §2

This is an account of results in patent US20160095843A1, “PYRAZOLOPYRROLIDINE DERIVATIVES AND THEIR USE IN THE TREATMENT OF DISEASE” (NOVARTIS AG, priority 2013, published 2016).

As a reminder, the GI50 is the concentration giving 50% growth inhibition. A low value points to greater sensitivity of the cells. Regarding `CNC(=O)n1nc2c(c1C)C(c1ccc(Cl)cc1)N(c1cc(C)c3nnc(C)n3c1)C2=O` (stereo not drawn) [Example 146, 4-(4-chlorophenyl)-5-(3,8-dimethyl-[1,2,4]triazolo[4,3-a]pyridin-6-yl)-N,3-dimethyl-6-oxo-5,6-dihydropyrrolo[3,4-c]pyrazole-2(4H)-carboxamide], the GI50 in the test on THP-1 cells was 150 nM; with MV-4-11 cells it was 39.2 nM; in the test on K-562 cells, 314 nM.

As to `Cc1cc(N2C(=O)c3nn(C(C)C)c(C)c3C2c2ccc(F)cc2F)cn2c(C)nnc12` (stereo not drawn) [Example 175, 4-(2,4-difluorophenyl)-5-(3,8-dimethyl-[1,2,4]triazolo[4,3-a]pyridin-6-yl)-2-isopropyl-3-methyl-4,5-dihydropyrrolo-[3,4-c]pyrazol-6(2H)-one], the GI50 came to 66.2 nM in the test with THP-1 cells, 42.2 nM in the test with MV-4-11 cells and 192 nM in the test on K-562 cells.

Regarding `Cc1cc(N2C(=O)c3c(cnn3C3CC3)C2c2ccc(Cl)cc2)cn(C)c1=O` (stereo not drawn) [Example 34, 4-(4-chlorophenyl)-1-cyclopropyl-5-(1,5-dimethyl-6-oxo-1,6-dihydropyridin-3-yl)-4,5-dihydropyrrolo[3,4-c]pyrazol-6(1H)-one], the results for the GI50 in the test with THP-1 cells, in the test with MV-4-11 cells and with K-562 cells were 162 nM, 82.8 nM and 601 nM, respectively.

As for `Cc1cc(N2C(=O)c3nn(C)cc3[C@H]2c2ccc(Cl)cc2)cn(C)c1=O` [Example 16, (R)-4-(4-chlorophenyl)-5-(1,5-dimethyl-6-oxo-1,6-dihydropyridin-3-yl)-2-methyl-4,5-dihydropyrrolo-[3,4-c]pyrazol-6(2H)-one], the GI50 came to 101 nM in the test on THP-1 cells, 75.8 nM in the test with MV-4-11 cells and 624 nM in the test on K-562 cells.

With `CCc1c2c(nn1C(=O)N(C)C)C(=O)N(c1cc(C)c(=O)n(C)c1)C2c1ccc(Cl)cc1` (stereo not drawn) [Example 148, 4-(4-chlorophenyl)-5-(1,5-dimethyl-6-oxo-1,6-dihydropyridin-3-yl)-3-ethyl-N,N-dimethyl-6-oxo-5,6-dihydropyrrolo-[3,4-c]pyrazole-2(4H)-carboxamide], the GI50 in the test with THP-1 cells was 157 nM; in the test on MV-4-11 cells, 81.7 nM; in the test with K-562 cells, 1130 nM.

In the case of `CCn1nc2c(c1C)C(c1ccc(F)cc1F)N(c1cc(C)c3nnc(C)n3c1)C2=O` (stereo not drawn) [Example 182, 4-(2,4-difluorophenyl)-5-(3,8-dimethyl-[1,2,4]triazolo[4,3-a]pyridin-6-yl)-2-ethyl-3-methyl-4,5-dihydropyrrolo-[3,4-c]pyrazol-6(2H)-one], the GI50 in the test on THP-1 cells was found to be 87.5 nM; in the test with MV-4-11 cells, 63.2 nM; in the test on K-562 cells, 280 nM.

Turning to `CNc1cc(N2C(=O)c3c(c(C)nn3C3CC3)[C@H]2c2ccc(Cl)cc2)nn2c(C)nnc12` [Example 161, (R)-4-(4-chlorophenyl)-1-cyclopropyl-3-methyl-5-(3-methyl-8-(methylamino)-[1,2,4]triazolo[4,3-b]pyridazin-6-yl)-4,5-dihydropyrrolo-[3,4-c]pyrazol-6(1H)-one], the GI50 with THP-1 cells stood at 78.5 nM; with MV-4-11 cells, 66.1 nM; in the test on K-562 cells, 352 nM.

Consider `CCn1nc(C)c2c1C(=O)N(c1cc(C)c3nnc(C)n3c1)C2c1ccc(Cl)cc1` (stereo not drawn) [Example 116, 4-(4-chlorophenyl)-5-(3,8-dimethyl-[1,2,4]triazolo[4,3-a]pyridin-6-yl)-1-ethyl-3-methyl-4,5-dihydropyrrolo-[3,4-c]pyrazol-6(1H)-one], for which the GI50 in the test on THP-1 cells was 18.8 nM; in the test on MV-4-11 cells, 12.5 nM; with K-562 cells it was 81.2 nM.

For the molecule `COc1c2c(nn1C)C(=O)N(c1cc(C)c(=O)n(C)c1)C2c1ccc(Cl)cc1` (stereo not drawn) [Example 77, 4-(4-chlorophenyl)-5-(1,5-dimethyl-6-oxo-1,6-dihydropyridin-3-yl)-3-methoxy-2-methyl-4,5-dihydropyrrolo-[3,4-c]pyrazol-6(2H)-one], the results for the 50% growth inhibitory concentration (GI50) in the test on THP-1 cells, with MV-4-11 cells and with K-562 cells were 178 nM, 88.8 nM and 569 nM, respectively.

With `CCOC(=O)N1CC(n2nc(C)c3c2C(=O)N(c2cc(C)c(=O)n(C)c2)C3c2ccc(Cl)cc2)C1` (stereo not drawn) [Example 155, Ethyl 3-(4-(4-chlorophenyl)-5-(1,5-dimethyl-6-oxo-1,6-dihydropyridin-3-yl)-3-methyl-6-oxo-5,6-dihydropyrrolo[3,4-c]pyrazol-1(4H)-yl)azetidine-1-carboxylate], the results for the GI50 with THP-1 cells, in the test on MV-4-11 cells and with K-562 cells were 120 nM, 73.4 nM and 638 nM, respectively.

`Cc1nn(C(C)C)c2c1C(c1ccc(Cl)cc1F)N(c1cc(C)c(=O)n(C)c1)C2=O` (stereo not drawn) [Example 180, 4-(4-chloro-2-fluorophenyl)-5-(1,5-dimethyl-6-oxo-1,6-dihydropyridin-3-yl)-1-isopropyl-3-methyl-4,5-dihydropyrrolo[3,4-c]pyrazol-6(1H)-one]: the GI50 with THP-1 cells amounted to 81.4 nM; in the test on MV-4-11 cells, 68 nM; in the test with K-562 cells, 266 nM.

For the molecule `Cc1c2c(nn1C(C)C)C(=O)N(c1cc(Cl)c(=O)n(C)c1)C2c1ccc(Cl)cc1` (stereo not drawn) [Example 65, 5-(5-chloro-1-methyl-6-oxo-1,6-dihydropyridin-3-yl)-4-(4-chlorophenyl)-2-isopropyl-3-methyl-4,5-dihydropyrrolo-[3,4-c]pyrazol-6(2H)-one], the 50% growth inhibitory concentration (GI50) in the test with THP-1 cells was determined as 121 nM; in the test with MV-4-11 cells, 67.5 nM; in the test on K-562 cells, 554 nM.

Take `Cc1cc(N2C(=O)c3nn(C(C)C)c(C)c3C2c2ccc(Cl)cc2F)cn2c(C)nnc12` (stereo not drawn) [Example 169, 4-(4-chloro-2-fluorophenyl)-5-(3,8-dimethyl-[1,2,4]triazolo[4,3-a]pyridin-6-yl)-2-isopropyl-3-methyl-4,5-dihydropyrrolo[3,4-c]pyrazol-6(2H)-one]: the GI50 was 50.5 nM in the test with THP-1 cells, 31.1 nM in the test with MV-4-11 cells and 276 nM in the test with K-562 cells.

For `Cc1cc(N2C(=O)c3c(c(CF)nn3C3CC3)C2c2ccc(Cl)cc2)cn2c(C)nnc12` (stereo not drawn) [Example 159, 4-(4-chlorophenyl)-1-cyclopropyl-5-(3,8-dimethyl-[1,2,4]triazolo[4,3-a]pyridin-6-yl)-3-(fluoromethyl)-4,5-dihydropyrrolo[3,4-c]pyrazol-6(1H)-one], the GI50 worked out at 36.9 nM in the test on THP-1 cells, 40 nM in the test on MV-4-11 cells and 116 nM in the test on K-562 cells.

Take `COc1ncccc1-n1nc(C)c2c1C(=O)N(c1cc(C)c3nnc(C)n3c1)C2c1ccc(Cl)cc1` (stereo not drawn) [Example 101, 4-(4-chlorophenyl)-5-(3,8-dimethyl-[1,2,4]triazolo[4,3-a]pyridin-6-yl)-1-(2-methoxypyridin-3-yl)-3-methyl-4,5-dihydropyrrolo[3,4-c]pyrazol-6(1H)-one]: the GI50 was found to be 53 nM in the test with THP-1 cells, 25.7 nM in the test on MV-4-11 cells and 261 nM in the test on K-562 cells.

On to `Cc1nn(-c2ccnn2C)c2c1C(c1ccc(Cl)cc1)N(c1cc(C)c3nnc(C)n3c1)C2=O` (stereo not drawn) [Example 90, 4-(4-chlorophenyl)-5-(3,8-dimethyl-[1,2,4]triazolo[4,3-a]pyridin-6-yl)-3-methyl-1-(1-methyl-1H-pyrazol-5-yl)-4,5-dihydropyrrolo[3,4-c]pyrazol-6(1H)-one], for which the results for the GI50 in the test with THP-1 cells, with MV-4-11 cells and in the test on K-562 cells were 51 nM, 25.5 nM and 276 nM, respectively.

For `CCc1nn(C)c2c1C(c1ccc(Cl)cc1)N(c1cc(OC)c3nnc(C)n3c1)C2=O` (stereo not drawn) [Example 105, 4-(4-chlorophenyl)-3-ethyl-5-(8-methoxy-3-methyl-[1,2,4]triazolo[4,3-a]pyridin-6-yl)-1-methyl-4,5-dihydropyrrolo-[3,4-c]pyrazol-6(1H)-one], the GI50 turned out to be 188 nM with THP-1 cells, 102 nM in the test with MV-4-11 cells and 729 nM with K-562 cells.

Take `Cc1nn(C2CC2)c2c1C(c1ccc(Cl)cc1)N(c1cc(C)c3nnn(C)c3n1)C2=O` (stereo not drawn) [Example 110, 4-(4-chlorophenyl)-1-cyclopropyl-5-(3,7-dimethyl-3H-[1,2,3]triazolo[4,5-b]pyridin-5-yl)-3-methyl-4,5-dihydropyrrolo-[3,4-c]pyrazol-6(1H)-one]: the figures for the GI50 in the test with THP-1 cells, in the test on MV-4-11 cells and in the test with K-562 cells were 10.6 nM, 5.25 nM and 50.3 nM, respectively.

With `Cc1n[nH]c2c1C(c1ccc(Cl)cc1F)N(c1cc(C)c3nnc(C)n3c1)C2=O` (stereo not drawn) [Example 183, 4-(4-chloro-2-fluorophenyl)-5-(3,8-dimethyl-[1,2,4]triazolo[4,3-a]pyridin-6-yl)-3-methyl-4,5-dihydropyrrolo-[3,4-c]pyrazol-6(2H)-one], the values for the 50% growth inhibitory concentration (GI50) in the test on THP-1 cells, in the test with MV-4-11 cells and in the test on K-562 cells were 135 nM, 76.1 nM and 659 nM, respectively.
